Results published in patent US20130137573A1, “HERBICIDAL COMPOSITIONS COMPRISING, AND METHODS OF USE OF, HERBICIDALLY ACTIVE PYRANDIONES” (priority 2009, published 2013).

How the values were obtained:
Assay type in all cases: in vivo
[1] = tested on: Echinochloa crus-galli (ECHCG); experiment: Biological Example 3 (Test 120): visual herbicidal damage to flooded ECHCG; settings: EC050, 14DAA
Protocol: (§1) Rice seeds, variety Koshihikari, were sown in seed trays, after 7 days they were transplanted as 3 groups of 2 plants, into pots containing a standard clay soil saturated with water replicating swampy conditions. These were grown on for 9 days in a glasshouse bay (30/20° C. day/night; 18/6 hours light/dark; 75% humidity). Approx 10-20 seeds of Echinochloa crus-galli were sown into pots 13 days prior to application, in the same conditions as the rice. All pots were flooded to 2-3 cm water depth the day prior to application. Growth stages at time of application were: Rice: 2-3 leaves; ECHCG: 2-3 leaves.
The test solutions were prepared by mixing the appropriate aliquots of the test substance (here, compound A-13 as the EC050 Formulation Example 1 disclosed herein) in de-ionised water to give the desired treatment concentration.
(§2) Application was made by pipetting the required amount of the test solution gently into the flood water of the appropriate pot.
(§3) The test plants were grown on in the same glasshouse conditions, and watered twice daily keeping the flood water at a depth of 2-3 cm.
(§4) A visual assessment of the % herbicidal damage was made 14 days after application (0=no damage to plants, 100=total kill).

[2] = tested on: Echinochloa crus-galli (ECHCG); experiment: Biological Example 1 (Test 125): visual herbicidal damage to flooded ECHCG; settings: 14 DAA
Protocol: Rice seeds, variety IR-64 (an indica type of rice), were sown in seed trays. After 7 days the resulting plants were transplanted as 3 groups of 2 plants, into pots containing a standard sandy loam soil saturated with water replicating swampy conditions. These were grown on for a further 9 days in a glasshouse bay (30/20° C. day/night; 18/6 hours light/dark; 75% humidity). Leptochloa chinensis (LEFCH) and Echinochloa crus-galli (ECHCG) were sown as 2 separate groups of approx 10-20 seeds into pots 13 days prior to application of the test substances, in the same glasshouse conditions as the rice. Therefore, each pot of weeds contained a group of LEFCH and a separate group of ECHCG. All pots of rice and all pots of weeds were flooded to 2-3 cm water depth the day prior to application of the test substances. Growth stages at time of application were as follows: Rice: from 2 leaves on the main stem up to tillering; ECHCG: from 2 leaves on the main stem up to tillering; LEFCH: 2-3 leaves.
Test solutions were prepared by mixing the appropriate aliquots of the test substances in deionised water to give the desired treatment concentration. Most of the test substances were used as formulated products. Specifically, compound A-13 was applied as the EC050 formulation disclosed in Formulation Example 1 herein (EC=emulsifiable concentrate). Reference compound A-4 was applied as the EC050 formulation disclosed in Reference Formulation Example 2 herein. Pyroxasulfone (a comparator co-herbicide) was applied as the SC050 formulation disclosed in Reference Formulation Example 6 herein (SC=Suspension concentrate). Imazosulfuron (a comparator co-herbicide) was applied as a GR0.25 formulation (GR=granule).
The test substances which were pure active ingredient (e.g. propyrisulfuron & fenoxasulfone & compound A-16) (labelled as ‘Technical’ in the following results table), were prepared by dissolving in 10.56% Emulsogen EL™ (castor oil ethoxylate, CAS Registry number 61791-12-6), 42.22% N-methylpyrrolidone and 42.22% dipropylene glycol mono-ethyl ether to give a stock solution containing 5% of the test substance and 95% of (Emulsogen EL™, N-methylpyrrolidone and dipropylene glycol mono-ethyl ether).
Application of the test substances was made by pipetting the required amount of the test solution or the test formulation gently into the flood water of the appropriate pot.
The test plants were then grown on in the same glasshouse conditions, and watered twice daily keeping the flood water at a depth of 2-3 cm.
A visual assessment of the % herbicidal damage was made 7 & 14 days after application […], and the results are presented herein as % visual herbicidal damage where 0=no damage to plants and 100=total kill.

[3] = tested on: Echinochloa crus-galli (ECHCG); experiment: Biological Example 4 (Test 110): transplanted (TPR) method, ECHCG damage; settings: EC050 into flood water, ECHCG 4 leaves, 14 days after application
Protocol: as §1, with “standard sandy loam” for “standard clay”, “bay 30/20°” for “bay (30/20°”, “2-3 leaves,” for “2-3 leaves;”, “ECHCG: 4” for “ECHCG: 2-3”, “leaves. The test solutions were prepared by mixing the appropriate aliquots of the test substance (here, compound A-13 as EC050 Formulation Example 1) in de-ionised water to give the desired treatment concentration.” for “leaves.”
as §2, §3
(§5) No. of repetitions: 1 test only.
as §4

[4] = tested on: Leptochloa chinensis (LEFCH); experiment: Biological Example 4 (Test 110): wet seeded rice (WSR) method, LEFCH damage; settings: EC050 + 0.2% Adsee, foliar spray, LEFCH 3 leaf, 14 days after application
Excerpt: Rice seeds varieties IR-64 and Arborio, Echinochloa crus-galli (ECHCG), and Leptochloa chinensis (LEFCH) were sown in seed trays containing a standard sandy loam soil saturated with water replicating swampy conditions. They were sown at intervals to achieve plants at the following growth stages at time of application: IR-64 and Arborio rice: from 3 leaves on the main stem to tillering; ECHCG: at two different leaf stages: 0-0.5 leaf and 2-3 leaf; LEFCH: 3 leaf. Glasshouse bay conditions were 30/20° C. day/night; 18/6 hours light/dark; 75% humidity.
The test solutions were prepared by mixing the appropriate aliquots of the test substance (here, compound A-13 as EC050 Formulation Example 1) and adjuvant (0.2% Adsee as adjuvant) in de-ionised water to give the desired treatment concentration.
Application was as a foliar spray, made using a tracksprayer. 3 days after application the trays were flooded to 2-3 cm water depth, and maintained at this level for the duration of the test.
as §5, §4

Question: With `CC1(C)OC(C)(C)C(O)=C(c2cc(-c3ccc(Cl)cc3F)ccc2C2CC2)C1=O` [compound A-13, 4-(4′-Chloro-4-cyclopropyl-2′-fluorobiphenyl-3-yl)-2,2,6,6-tetramethylpyran-3,5-dione] as the compound, how does the “ECHCG % herbicidal damage, Mean of 2 repetitions” value (from here on “ECHCG % herbicidal damage, Mean”) ([1]; 30 g/ha) read?
Answer: The value was 58%.

Question: What about the “ECHCG % herbicidal damage, Repetition A” value ([1]; 30 g/ha) of the same compound?
Answer: The value was 55%.

Question: And the “ECHCG % herbicidal damage, Repetition B” value ([1]; 30 g/ha)?
Answer: Its value is 60%.

Question: And the “ECHCG % herbicidal damage, Mean” value ([1]; 60 g/ha)?
Answer: Its value is 63%.

Question: And the “ECHCG % herbicidal damage, Repetition A” value ([1]; 60 g/ha)?
Answer: The value was 65%.

Question: What about the “ECHCG % herbicidal damage, Repetition B” value ([1]; 60 g/ha) of the same compound?
Answer: Its value is 60%.

Question: What about the “ECHCG % herbicidal damage, Mean” value ([1]; 125 g/ha) of the same compound?
Answer: Its value is 88%.

Question: And the “ECHCG % herbicidal damage, Repetition A” value ([1]; 125 g/ha)?
Answer: The value was 85%.

Question: And the “ECHCG % herbicidal damage, Repetition B” value ([1]; 125 g/ha)?
Answer: The value was 90%.

Question: And the “ECHCG control (span of the 2 repetitions)” value ([1]; 125 g/ha)?
Answer: The value was 85-90%.

Question: What about the ECHCG control ([2]; 60 g/ha applied alone (EC050)) of the same compound?
Answer: Its ECHCG control is 35%.

Question: What about the ECHCG control ([2]; 90 g/ha applied alone (EC050)) of the same compound?
Answer: Its ECHCG control is 55%.

Question: And the ECHCG control ([2]; 120 g/ha applied alone (EC050))?
Answer: The ECHCG control was 55%.

Question: What about the “Transplanted ECHCG % herbicidal damage” value ([3]; 30 g/ha) of the same compound?
Answer: The value was 0%.

Question: What about the “Transplanted ECHCG % herbicidal damage” value ([3]; 60 g/ha) of the same compound?
Answer: Its value is 20%.

Question: What about the “Transplanted ECHCG % herbicidal damage” value ([3]; 125 g/ha) of the same compound?
Answer: Its value is 75%.

Question: What about the “Transplanted ECHCG % herbicidal damage” value ([3]; 500 g/ha) of the same compound?
Answer: The value was 99%.

Question: What about the “WSR LEFCH % herbicidal damage” value ([4]; 8 g/ha) of the same compound?
Answer: Its value is 10%.

Question: And the “WSR LEFCH % herbicidal damage” value ([4]; 60 g/ha)?
Answer: The value was 10%.

Question: And the “WSR LEFCH % herbicidal damage” value ([4]; 125 g/ha)?
Answer: The value was 65%.

Question: What about the “WSR LEFCH % herbicidal damage” value ([4]; 500 g/ha) of the same compound?
Answer: Its value is 75%.
